For assay [1], the target named is T1, Serine/threonine-protein kinase D3 (Homo sapiens) (UniProt O94806).
T1 sequence (whole entry): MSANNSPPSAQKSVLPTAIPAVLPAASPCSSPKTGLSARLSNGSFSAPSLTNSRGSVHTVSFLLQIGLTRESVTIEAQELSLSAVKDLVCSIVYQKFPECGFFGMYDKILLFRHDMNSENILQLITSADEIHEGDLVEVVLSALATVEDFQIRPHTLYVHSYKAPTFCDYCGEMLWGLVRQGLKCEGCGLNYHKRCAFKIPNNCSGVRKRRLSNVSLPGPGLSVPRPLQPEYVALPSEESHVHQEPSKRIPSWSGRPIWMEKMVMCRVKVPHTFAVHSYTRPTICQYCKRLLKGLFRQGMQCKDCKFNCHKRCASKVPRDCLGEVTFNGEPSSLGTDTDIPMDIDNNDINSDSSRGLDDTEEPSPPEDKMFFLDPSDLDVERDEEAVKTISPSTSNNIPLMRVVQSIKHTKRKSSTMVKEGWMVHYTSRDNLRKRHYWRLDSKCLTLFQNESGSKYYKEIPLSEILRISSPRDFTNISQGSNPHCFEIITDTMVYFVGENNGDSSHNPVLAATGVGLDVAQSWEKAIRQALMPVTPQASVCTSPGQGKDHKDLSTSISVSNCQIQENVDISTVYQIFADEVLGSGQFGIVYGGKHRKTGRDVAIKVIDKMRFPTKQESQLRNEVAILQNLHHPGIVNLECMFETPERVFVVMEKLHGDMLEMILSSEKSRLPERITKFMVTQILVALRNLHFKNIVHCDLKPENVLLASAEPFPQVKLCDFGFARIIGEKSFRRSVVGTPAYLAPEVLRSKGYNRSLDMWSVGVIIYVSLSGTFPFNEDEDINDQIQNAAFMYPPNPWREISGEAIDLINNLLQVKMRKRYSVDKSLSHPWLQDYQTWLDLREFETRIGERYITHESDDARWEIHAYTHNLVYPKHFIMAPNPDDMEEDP
Briefly: Selectivity interaction (ProQinase) EUB0000171b PRKD3.

The target in assay [2] is T2, Serine/threonine-protein kinase DCLK1 (Homo sapiens) (UniProt O15075).
T2 sequence (whole entry): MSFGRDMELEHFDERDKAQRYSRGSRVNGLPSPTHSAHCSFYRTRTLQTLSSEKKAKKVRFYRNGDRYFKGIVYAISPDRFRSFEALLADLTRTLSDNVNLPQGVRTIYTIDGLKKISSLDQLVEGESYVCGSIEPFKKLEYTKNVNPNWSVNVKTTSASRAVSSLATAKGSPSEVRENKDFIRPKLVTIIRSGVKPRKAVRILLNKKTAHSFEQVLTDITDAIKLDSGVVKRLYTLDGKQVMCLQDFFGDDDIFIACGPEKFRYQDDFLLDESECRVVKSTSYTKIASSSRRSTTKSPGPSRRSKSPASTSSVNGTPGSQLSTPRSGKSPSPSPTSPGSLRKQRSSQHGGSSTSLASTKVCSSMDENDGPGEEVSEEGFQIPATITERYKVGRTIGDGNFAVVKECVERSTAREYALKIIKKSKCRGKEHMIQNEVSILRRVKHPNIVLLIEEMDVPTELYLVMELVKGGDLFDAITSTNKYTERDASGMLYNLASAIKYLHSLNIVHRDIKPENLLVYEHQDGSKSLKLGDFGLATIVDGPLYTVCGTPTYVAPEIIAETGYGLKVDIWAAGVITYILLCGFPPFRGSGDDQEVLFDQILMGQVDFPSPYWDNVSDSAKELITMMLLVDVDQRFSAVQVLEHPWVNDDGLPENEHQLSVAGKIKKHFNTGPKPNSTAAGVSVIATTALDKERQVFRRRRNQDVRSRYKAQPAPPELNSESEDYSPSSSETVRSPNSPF
The assay is described as follows: Selectivity interaction (Ambit KINOMEscan and KiNATiv profiling in Jurkat cells) EUB0000090b DCLK1. It is filed as cell-based. The conditions noted are these: at 1 µM.

Assay [3] deals with Serine/threonine-protein kinase B-raf (Homo sapiens, UniProt P15056, V600E). The assay is described as follows: Selectivity interaction (Radiometric kinase assay (using 10 uM ATP)) EUB0000601a BRAF.
The subject of assay [4] is Receptor-type tyrosine-protein kinase FLT3 (Homo sapiens), P36888 [UNDEFINED MUTATION]. The assay is described as follows: Selectivity interaction (KinomeScan (DiscoverX)) EUB0001079a FLT3. The note with it: at 1 µM.
The target in assay [5] is T3, Discoidin domain-containing receptor 2 (Homo sapiens) (UniProt Q16832).
T3 sequence (whole entry): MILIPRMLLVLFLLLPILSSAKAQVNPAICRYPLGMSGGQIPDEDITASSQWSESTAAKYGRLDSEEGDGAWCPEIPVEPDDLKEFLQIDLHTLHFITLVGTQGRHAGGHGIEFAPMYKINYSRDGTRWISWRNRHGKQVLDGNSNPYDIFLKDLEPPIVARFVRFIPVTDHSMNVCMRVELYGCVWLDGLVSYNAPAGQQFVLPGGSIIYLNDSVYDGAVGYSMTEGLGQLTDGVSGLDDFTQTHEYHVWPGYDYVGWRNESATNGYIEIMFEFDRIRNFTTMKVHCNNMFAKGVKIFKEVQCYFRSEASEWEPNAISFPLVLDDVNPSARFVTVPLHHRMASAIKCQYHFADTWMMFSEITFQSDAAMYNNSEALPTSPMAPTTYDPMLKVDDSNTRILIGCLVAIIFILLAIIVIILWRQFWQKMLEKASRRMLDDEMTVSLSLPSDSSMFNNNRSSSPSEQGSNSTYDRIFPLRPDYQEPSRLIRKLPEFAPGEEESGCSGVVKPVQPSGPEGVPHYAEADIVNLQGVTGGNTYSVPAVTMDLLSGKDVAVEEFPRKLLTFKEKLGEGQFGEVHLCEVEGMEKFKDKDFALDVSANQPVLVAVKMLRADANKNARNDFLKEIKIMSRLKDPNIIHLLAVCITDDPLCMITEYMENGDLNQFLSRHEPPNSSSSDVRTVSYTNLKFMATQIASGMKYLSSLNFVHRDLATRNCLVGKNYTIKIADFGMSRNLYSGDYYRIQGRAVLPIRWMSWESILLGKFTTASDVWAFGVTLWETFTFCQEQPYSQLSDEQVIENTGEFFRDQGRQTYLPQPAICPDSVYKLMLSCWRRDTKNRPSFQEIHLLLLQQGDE
Briefly: Selectivity interaction (KinomeScan (DiscoverX)) EUB0000655a DDR2. The conditions noted are these: at 10 µM.

The target of assay [6] is Serine/threonine-protein kinase OSR1 (Homo sapiens) (UniProt O95747). Briefly: Selectivity interaction (LanthaScreen Eu Kinase Binding Assay) EUB0001632a OXSR1. The conditions noted are these: at 10 µM. In general terms: TR-FRET usually uses a lanthanide donor and a delayed reading to cut background.
Assay [7] addresses Protein kinase C beta type (Homo sapiens, UniProt P05771). The assay is described as follows: Selectivity interaction (Kinase panel (Z-LYTE Assay)) EUB0001632a PRKCB. The conditions noted are these: at 10 µM.
Assay [8] concerns the target Ribosomal protein S6 kinase alpha-3 (Homo sapiens, UniProt P51812). The assay is described as follows: Selectivity interaction (ActivX KiNativ screen (kinase selectivity in THP-1 cell lysates)) EUB0000639a RPS6KA3. The conditions noted are these: lysate, at 0.04 µM. It is filed as subcellular.

From ChEMBL document CHEMBL5465560, “Selectivity Literature for EUbOPEN Chemogenomic Library” (2024) come the findings set out here.

pIC50: −log10 of the molar value.

Chain of Receptor-type tyrosine-protein kinase FLT3 (Homo sapiens), P36888 [UNDEFINED MUTATION] (P36888 whole entry, looked up, change not shown, the tested form may be a part): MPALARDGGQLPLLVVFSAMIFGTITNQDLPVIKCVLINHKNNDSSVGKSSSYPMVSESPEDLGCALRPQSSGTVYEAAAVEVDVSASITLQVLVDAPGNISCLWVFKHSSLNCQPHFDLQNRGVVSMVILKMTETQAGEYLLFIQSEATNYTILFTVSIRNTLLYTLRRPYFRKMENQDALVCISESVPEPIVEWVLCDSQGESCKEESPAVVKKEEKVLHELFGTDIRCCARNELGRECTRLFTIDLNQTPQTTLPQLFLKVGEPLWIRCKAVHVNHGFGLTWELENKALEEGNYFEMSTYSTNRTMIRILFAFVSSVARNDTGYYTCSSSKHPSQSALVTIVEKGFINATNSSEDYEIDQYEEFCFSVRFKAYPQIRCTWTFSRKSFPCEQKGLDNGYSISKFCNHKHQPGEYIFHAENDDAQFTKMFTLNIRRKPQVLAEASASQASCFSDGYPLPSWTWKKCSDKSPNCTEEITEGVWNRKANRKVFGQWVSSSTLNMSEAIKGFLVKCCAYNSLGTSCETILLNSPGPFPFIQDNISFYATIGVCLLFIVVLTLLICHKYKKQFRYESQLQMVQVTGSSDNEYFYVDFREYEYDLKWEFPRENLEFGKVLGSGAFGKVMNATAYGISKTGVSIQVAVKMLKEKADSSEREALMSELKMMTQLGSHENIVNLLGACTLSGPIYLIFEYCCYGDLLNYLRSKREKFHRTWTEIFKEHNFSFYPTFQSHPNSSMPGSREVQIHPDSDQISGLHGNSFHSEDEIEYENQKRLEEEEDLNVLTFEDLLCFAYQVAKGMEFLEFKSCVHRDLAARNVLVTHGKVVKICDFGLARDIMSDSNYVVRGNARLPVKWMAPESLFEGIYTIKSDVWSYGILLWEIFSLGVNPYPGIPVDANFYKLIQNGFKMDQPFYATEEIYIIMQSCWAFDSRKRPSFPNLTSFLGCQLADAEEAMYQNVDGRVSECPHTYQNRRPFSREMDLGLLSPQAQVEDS
Chain of Serine/threonine-protein kinase B-raf (P15056 2-766 V600E limits assumed): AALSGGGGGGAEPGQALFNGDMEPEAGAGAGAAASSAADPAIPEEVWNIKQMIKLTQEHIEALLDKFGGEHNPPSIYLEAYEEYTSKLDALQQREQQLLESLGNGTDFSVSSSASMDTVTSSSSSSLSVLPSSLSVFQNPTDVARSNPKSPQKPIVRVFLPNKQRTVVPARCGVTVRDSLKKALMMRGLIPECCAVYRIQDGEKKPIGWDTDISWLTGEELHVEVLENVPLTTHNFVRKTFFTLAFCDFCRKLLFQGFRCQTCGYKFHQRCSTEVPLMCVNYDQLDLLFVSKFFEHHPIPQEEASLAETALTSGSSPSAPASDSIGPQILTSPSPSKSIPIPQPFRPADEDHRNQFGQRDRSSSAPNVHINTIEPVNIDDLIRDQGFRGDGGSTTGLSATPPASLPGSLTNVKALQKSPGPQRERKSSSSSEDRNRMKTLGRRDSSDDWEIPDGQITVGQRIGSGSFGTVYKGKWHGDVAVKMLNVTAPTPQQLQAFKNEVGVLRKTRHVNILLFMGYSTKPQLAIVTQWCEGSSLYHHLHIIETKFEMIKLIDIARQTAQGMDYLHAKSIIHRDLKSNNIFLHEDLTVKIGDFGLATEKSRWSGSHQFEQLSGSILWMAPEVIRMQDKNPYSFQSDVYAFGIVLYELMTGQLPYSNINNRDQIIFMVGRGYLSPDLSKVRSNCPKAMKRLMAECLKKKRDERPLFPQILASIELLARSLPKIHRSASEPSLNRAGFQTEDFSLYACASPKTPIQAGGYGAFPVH
Chain of Serine/threonine-protein kinase OSR1 (Homo sapiens) (O95747 2-527 limits assumed): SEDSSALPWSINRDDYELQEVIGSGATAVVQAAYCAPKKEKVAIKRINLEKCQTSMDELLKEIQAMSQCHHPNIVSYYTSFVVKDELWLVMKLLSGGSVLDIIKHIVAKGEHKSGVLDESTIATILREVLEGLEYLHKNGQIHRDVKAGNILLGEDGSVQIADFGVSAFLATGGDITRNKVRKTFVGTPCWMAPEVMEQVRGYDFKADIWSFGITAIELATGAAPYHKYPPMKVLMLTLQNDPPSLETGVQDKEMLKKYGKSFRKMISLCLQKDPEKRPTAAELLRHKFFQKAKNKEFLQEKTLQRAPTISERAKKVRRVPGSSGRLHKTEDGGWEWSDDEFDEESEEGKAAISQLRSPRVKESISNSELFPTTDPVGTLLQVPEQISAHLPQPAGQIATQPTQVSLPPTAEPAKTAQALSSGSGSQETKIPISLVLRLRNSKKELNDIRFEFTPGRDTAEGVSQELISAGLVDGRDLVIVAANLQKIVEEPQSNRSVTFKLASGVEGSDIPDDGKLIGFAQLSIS
Chain of Protein kinase C beta type (P05771 2-671 limits assumed): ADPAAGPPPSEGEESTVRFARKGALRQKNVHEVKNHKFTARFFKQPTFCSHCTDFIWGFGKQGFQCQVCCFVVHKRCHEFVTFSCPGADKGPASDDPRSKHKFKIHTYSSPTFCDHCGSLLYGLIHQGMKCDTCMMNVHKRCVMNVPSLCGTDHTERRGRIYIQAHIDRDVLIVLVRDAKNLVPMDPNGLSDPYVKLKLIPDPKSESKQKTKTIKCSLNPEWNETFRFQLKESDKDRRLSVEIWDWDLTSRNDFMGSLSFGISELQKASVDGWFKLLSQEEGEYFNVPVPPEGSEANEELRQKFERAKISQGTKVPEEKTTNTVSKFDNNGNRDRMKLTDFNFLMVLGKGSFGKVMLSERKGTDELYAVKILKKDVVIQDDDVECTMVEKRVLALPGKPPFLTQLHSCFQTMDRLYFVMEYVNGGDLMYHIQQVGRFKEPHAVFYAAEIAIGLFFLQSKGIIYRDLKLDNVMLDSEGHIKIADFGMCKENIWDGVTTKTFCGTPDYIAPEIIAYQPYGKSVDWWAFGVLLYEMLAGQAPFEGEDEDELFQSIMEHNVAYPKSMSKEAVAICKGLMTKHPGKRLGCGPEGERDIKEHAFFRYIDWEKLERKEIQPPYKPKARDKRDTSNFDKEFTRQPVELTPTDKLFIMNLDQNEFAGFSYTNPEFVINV
Chain of Ribosomal protein S6 kinase alpha-3 (P51812 whole entry): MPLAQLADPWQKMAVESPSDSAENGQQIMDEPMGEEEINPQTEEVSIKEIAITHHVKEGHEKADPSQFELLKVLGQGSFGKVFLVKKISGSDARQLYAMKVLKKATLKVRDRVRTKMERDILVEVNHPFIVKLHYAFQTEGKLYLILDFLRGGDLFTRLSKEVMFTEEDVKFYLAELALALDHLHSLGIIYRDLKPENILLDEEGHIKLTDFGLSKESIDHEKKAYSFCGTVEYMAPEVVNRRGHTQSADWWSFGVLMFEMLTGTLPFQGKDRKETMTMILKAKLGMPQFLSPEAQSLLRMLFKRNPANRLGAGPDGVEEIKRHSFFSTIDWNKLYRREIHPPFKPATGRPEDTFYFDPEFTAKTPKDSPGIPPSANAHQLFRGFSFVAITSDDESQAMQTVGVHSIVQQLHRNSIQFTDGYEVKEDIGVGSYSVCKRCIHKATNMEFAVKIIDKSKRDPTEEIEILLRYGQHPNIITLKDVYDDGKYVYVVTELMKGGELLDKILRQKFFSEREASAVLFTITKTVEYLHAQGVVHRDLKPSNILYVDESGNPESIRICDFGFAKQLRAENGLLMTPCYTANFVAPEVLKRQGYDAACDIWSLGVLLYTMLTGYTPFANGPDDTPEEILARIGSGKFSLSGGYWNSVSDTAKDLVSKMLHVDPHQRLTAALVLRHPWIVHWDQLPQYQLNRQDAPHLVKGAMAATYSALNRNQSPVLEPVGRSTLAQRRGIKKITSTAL

With `C=CC(=O)Nc1cccc(C(=O)Nc2ccc(Nc3cc(-c4[nH]c(SC)nc4C)ccn3)cc2)c1`, the % of control came to 44% in assay [1] (at 1 µM) and 15% in assay [1] (at 5 µM).

With `CN(C)C/C=C/C(=O)Nc1ccc(C(=O)N2CCCC(Nc3ncc(Cl)c(-c4c[nH]c5ccccc45)n3)C2)cc1` (centres undefined), in assay [2], the % of control came out at 58%.

The pIC50 is the IC50 on a negative log10 scale, so that one unit is a factor of ten. With `CCc1cc(Nc2nccc(-c3c(-c4ccc(OC)c(C(=O)Nc5c(F)cccc5F)c4)nc4ccccn34)n2)c(OC)cc1N1CCC(N2CCN(S(C)(=O)=O)CC2)CC1`, the pIC50 in assay [3] was less than 5.70.

In assay [4], `Nc1cnc(N2CCc3cc(S(=O)(=O)Nc4c(F)cc(Cl)cc4F)cc(N4CCCC4=O)c32)nc1` [TP-020n] had a % of control of 100%.

`CN(C)CCOc1ccc(-c2nc(-c3ccncc3)c(-c3ccc4c(c3)CC/C4=N\O)[nH]2)cc1`: the % of control in assay [5] turned out to be 67%.

In the case of `Cn1cc(-n2cnc3c(NCc4nc5cc(Cl)c(Cl)cc5[nH]4)nc(N4CCOCC4)nc32)cn1`, the % of inhibition in assay [6] is -23%. The % of control in assay [7] turned out to be 45.9%.

For `CC[C@@H]1[C@H](F)C(=O)N[C@@H]1COc1nccc2cc(C(N)=O)c(OC)cc12` [ZIMLOVISERTIB], in assay [8], the % of inhibition came out at 2.8%.
